Test results from patent US11806402B2, “Sulfoalkyl ether cyclodextrin compositions” (CyDex Pharmaceuticals, Inc., priority 2008, dated 2023).

Assay: Assay and impurity analysis (HPLC) of heat-stressed SBE6.6-β-CD/glucocorticosteroid (budesonide) formulation
Format: physicochemical
Settings: glucocorticosteroid standard, no SBE6.6-β-CD lot
Procedure: Comparative evaluation of the stability of various lots of SBE6.6-β-CD that underwent a single or a double treatment with activated carbon (according to Examples 27 and 24, respectively) were formulated with a glucocorticosteroid (budesonide) and an excipient (water), and were examined by HPLC. The general procedure is provided below.
SBE6.6-β-CD solutions (7.5% w/w, formulated with SBE6.6-β-CD Lot Nos. 17CX01.HQ00025, 17CX01.HQ00029 and 17CX01.HQ00041), were prepared by dissolving about 7.5 grams of SBE6.6-β-CD (corrected for water content) in 100 mL of water. A glucocorticosteroid was weighed in amounts in excess of the anticipated solubilities directly into TEFLON®-lined screw-capped containers. Approximately 275 μg/mL of the glucocorticoid steroid was vigorously stirred for 2 hours in an amber glass container. At the end of the agitation time, the glucocorticosteroid solution was filtered using a 0.24 μm syringe filter.
Control solution samples were removed before autoclaving. Aliquots of the solutions were autoclaved for four 20 minute cycles at 121° C. The samples were then analyzed by HPLC to determine assay content and the level of impurities formed during the heating cycles. Solution samples of SBE6.6-β-CD were prepared and analyzed on a PERKIN ELMER Lambda 35 UV/Vis spectrophotometer, scanning from 190 nm to 400 nm at a speed of 240 nm/min and a slit width of 1.0 nm to determine the UV content.

Assay GS Total: 99.385 Area %
Assay R-GS: 51.888 Area %
Assay S-GS: 47.497 Area %
Assay Δ: 0%
Impurities A: 0.001 Area %
Impurities B (S-11-keto-derivative): 0.127 Area %
Compound: CCCC1O[C@@H]2C[C@H]3[C@@H]4CCC5=CC(=O)C=C[C@]5(C)[C@H]4[C@@H](O)C[C@]3(C)[C@]2(C(=O)CO)O1 (stereo partly drawn) [Glucocorticosteroid (“GS”) Std., budesonide]
